From patent US8436006B2, “2-amino-quinazoline derivatives useful as inhibitors of β-secretase (BACE)” (Jansssen Pharmaceutica N.V., priority 2004, dated 2013) come the findings set out here.

Bounds are passed on as bounds.

What all share (format): biochemical
For test [1], the target named is T1, β-secretase (BACE) (Homo sapiens, UniProt P56817).
T1 construct: purchased Panvera
As to the kind of experiment: BACE Assay-2 (Example 159), FS1 substrate, kinetic fluorescence. The note with it: procedure of Example 159. As to the method: The FS1-substrate stock solution was prepared in DMSO as a 10 mg/mL solution. The FS1-substrate working solution was prepared by diluting the 10 mg/mL stock solution with substrate assay buffer to a final concentration of 300 μg/mL. The β-secretase (BACE) working solution was prepared by diluting a 0.83 mg/mL BACE stock solution with enzyme assay buffer to a final concentration of 4 μg/mL.
Test compounds were dissolved in DMSO at 10 mM.
The procedure for this assay was as follows: 15 μL of BACE working solution was pipetted into each well of a 96-well plate. To each well was then pipetted 2 μL of test compound at the selected concentration. Test compound and BACE were then mixed with a pipettor and incubated for 20 min at room temperature. To each well was then added 10 μL of the FS1 substrate working solution.
The procedure for the positive control was as follows: 15 μL of BACE working solution was pipetted into each well to be used as a positive control. To each well was then pipetted 2 μL of vehicle. Vehicle and BACE were then mixed with a pipettor and incubated for 20 min at room temperature. To each well was then added 10 μL of the FS1 substrate working solution.
For test compounds, measured at multiple concentrations, the measured T0 and T60 values were used to calculate an IC50 value using Graphpad Software (or PIR). For test compounds, Ki inhibition was determined as follows: For each compound concentration and positive control, rate of cleavage of substrate (Vi, where i=compound concentration in μM) was determined as Δ Fluorescence/Δ time (min). Cleavage rates (Vi) were plotted as a function of inhibitor concentration in μM [I]. The Ki was then determined by fitting the following equation to the graph of [I] vs Vi Y=aVmax/(50+24*(1+X/Ki)),

Test [2] addresses T1, β-secretase (BACE). As to the kind of experiment: BACE Assay-1 (Example 158), MCA-substrate fluorescence. The note with it: procedure of Example 158. As to the method:
The following standards are reagents were used in this assay: Sodium Citrate trisodium salt dihydrate (Sigma), Citric Acid monohydrate (Merck), PEG8000 (Sigma), MCA-substrate (Bachem), β-secretase (BACE) (Panvera), 96-well plate zwart (Costar (Elscolab)), StatVal (Bachem).
The following standard assay buffer solution was prepared and used in this assay: 0.05 M, pH 5.0 mixture of sodium citrate trisodium salt dihydrate (9.56 g), citric acid monohydrate (3.68 g) and PEG8000 (0.50 g).
The MCA-substrate stock solution was prepared by mixing 10 mg MCA-substrate with 5 mL DMSO for a final solution concentration of 2.0 mg/mL. The substrate work solution was prepared by mixing 0.1 mL substrate in 1.90 mL assay buffer for a final concentration of 0.05 mM. The β-secretase (BACE) work solution was prepared by mixing 8 μL BACE in 2 mL assay buffer for a final concentration of 10 μg/mL.
The screen procedure for this assay was as follows. 60 μL of assay buffer was pippeted into each well of a 96-well plate. To each well was then pipetted 1 μL of test compound at the selected concentration. To each well was then added 20 μL of the β-secretase work solution and 20 μL of the MCA-substrate stock solution.
The procedure for the blank was as follows. 80 μL of assay buffer was pipetted into each well to be used as a blank control. To each well was then added 1 μL of DMSO and 20 μL of MCA-substrate solution in each well.
The procedure for the positive control was as follows. 60 μL of assay buffer was pipetted into each well to be used as a positive control. To each well was then added 1 μL of DMSO, 20 μL of BACE work solution and 20 μL of MCA-substrate stock solution.
For test compounds, measured at multiple concentrations, the measured T0 and T60 values were used to calculate an IC50 value using Graphpad Software (or PIR).

For test [3], the target named is T1, β-secretase (BACE). The test is described as follows: BACE FS1% Inhibition Assay (Example 160). To be noted: read-out: % Inhibition (FS); for inhibition at 3 µM: 3 μM test compound; for inhibition at 10 µM: 10 μM test compound; for inhibition at 0.3 µM: 0.3 μM test compound; for inhibition at 1 µM: 1 μM test compound.
In test [4] the target is T1, β-secretase (BACE). The test is described as follows: BACE % Inhibition Assay (Example 161), (Aedens)-[…]-(Dabcyl K-amide) substrate. The note with it: % error ±10%; for inhibition at 0.3 µM: 0.3 μM test compound; for inhibition at 1 µM: 1 μM test compound; for inhibition at 3 µM: 3 μM test compound. As to the method:
The following reagents were used in this assay: sodium acetate, PEG8000 (Sigma), DMSO, HEPES, (Aedens)-[…]-(Dabcyl K-amide) substrate, β-secretase (BACE) (Panvera), and 96-well plate (HE microplate, Molecular Devices).
The substrate stock solution was prepared in DMSO as a 10 mg/mL solution. The substrate working solution was prepared by diluting the 10 mg/mL stock solution with substrate assay buffer to a final concentration of 300 μg/mL. The β-secretase (BACE) working solution was prepared by diluting a 0.83 mg/mL BACE stock solution with enzyme assay buffer to a final concentration of 4 μg/mL.
Test compounds were dissolved in DMSO to 10 mM.
The screening procedure for this assay was as follows: 15 μL of BACE working solution was pipetted into each well of a 96-well plate. To each well was then pipetted 2 μL of test compound at the selected concentration. Test compound and BACE were then mixed with a pipettor and incubated for 20 min at room temperature. To each well was then added 10 μL of the substrate working solution. The plates were then incubated for 1 hour at room temperature.
The procedure for the blank was as follows. 15 μL of assay buffer was pipetted into each well to be used as a blank control. To each well was then added 2 μL of vehicle and 10 μL of substrate working solution. The plates were then incubated for 1 hour at room temperature.
The procedure for the positive control was as follows: 15 μl of BACE working solution was pipetted into each well to be used as a positive control. To each well was then pipetted 2 μL of vehicle. Vehicle and BACE were then mixed with a pipettor and incubated for 20 min at room temperature. To each well was then added 10 μL of the substrate working solution. The plates were then incubated for 1 hour at room temperature.
For test compounds, % inhibition was determined at each concentration as follows: % Inhibition=[[…]][FI(positive control)−FI(negative control)]

T1 sequence (P56817 46-501): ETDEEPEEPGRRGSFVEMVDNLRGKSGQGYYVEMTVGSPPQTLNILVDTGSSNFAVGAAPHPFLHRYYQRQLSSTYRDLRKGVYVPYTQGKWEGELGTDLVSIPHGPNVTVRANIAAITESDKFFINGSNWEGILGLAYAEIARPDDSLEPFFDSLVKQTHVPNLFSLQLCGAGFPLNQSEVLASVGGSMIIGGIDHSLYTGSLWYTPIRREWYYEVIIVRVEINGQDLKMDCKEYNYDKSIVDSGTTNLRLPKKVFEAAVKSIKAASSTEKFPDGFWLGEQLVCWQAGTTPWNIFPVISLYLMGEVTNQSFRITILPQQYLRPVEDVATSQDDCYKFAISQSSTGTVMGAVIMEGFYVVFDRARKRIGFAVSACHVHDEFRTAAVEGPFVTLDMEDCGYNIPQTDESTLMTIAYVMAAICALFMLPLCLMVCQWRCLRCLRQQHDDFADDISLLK

`CCCC(CCC(=O)NC1CCCCCC1)N1Cc2cc(Oc3ccccc3)ccc2N=C1N` (stereo not shown) [Compound 128] gave a Ki at β-secretase (BACE) [1] of 0.13 µM. Moreover, on β-secretase (BACE) [2], the IC50 was determined as 0.072 µM. Further, at β-secretase (BACE) [3], the inhibition at 3 µM was found to be 97% and the inhibition at 10 µM was found to be 108%.
`CCCC(CCCC(=O)NC1CCCCC1)N1Cc2cc(Oc3ccccc3)ccc2N=C1N` (stereo not shown) [Compound 91] gave a Ki at β-secretase (BACE) [1] of 0.32 µM. The compound also had an IC50 on β-secretase (BACE) [2] of 0.6 µM. Moreover, at β-secretase (BACE) [3], the inhibition at 3 µM was found to be 68% and the inhibition at 10 µM is 117%.
`CCCCCC(CCC(=O)NC1CCCCCC1)N1Cc2cc(Oc3ccccc3)ccc2N=C1N` (stereo not shown) [Compound 150] displayed a Ki on β-secretase (BACE) [1] of 0.46 µM. Further, on β-secretase (BACE) [3], the inhibition at 0.3 µM was < 30%, the inhibition at 1 µM is < 30% and the inhibition at 3 µM was 90%.
`CC(C)(C)C(=O)NCC(C1CCCCC1)N1Cc2cc(Oc3ccccc3)ccc2N=C1N` (stereo not shown) [Compound 317] registered a Ki at β-secretase (BACE) [1] of 0.18 µM. For the same compound, the midpoint of inhibition against β-secretase (BACE) [2], the IC50, lay at 0.39 µM. For the same compound, at β-secretase (BACE) [4], the inhibition at 0.3 µM was < 30%, the inhibition at 1 µM is 66% and the inhibition at 3 µM was determined as 107%.
Turning to `CCCN1Cc2cc(Oc3cccc(NS(=O)(=O)c4cccc5nsnc45)c3)ccc2N=C1N` [Compound 247], the IC50 against β-secretase (BACE) [2] is 1.7 µM.
The compound `CCC[C@H](CNC(=O)CCC(C)C)N1Cc2cc(Oc3ccccc3)ccc2N=C1N` [Compound 603] had a Ki on β-secretase (BACE) [1] of 0.033 µM. Also, at β-secretase (BACE) [3], the inhibition at 0.3 µM stood at 101%, the inhibition at 1 µM was 114% and the inhibition at 3 µM came to 122%.
The like results for `CN(C(=O)CC(C1CCCCC1)N1Cc2cc(Oc3ccccc3)ccc2N=C1N)C1CCCCC1` (stereo not shown) [Compound 199] were, in that order, 0.51 µM, < 30%, < 30% and 82%.
In turn, `NC1=Nc2ccc(Oc3ccccc3)cc2CN1C(CNC(=O)C1(c2ccc(Cl)cc2)CCCC1)C1CCCCC1` (stereo not shown) [Compound 390] displayed a Ki at β-secretase (BACE) [1] of 0.57 µM. Also, at β-secretase (BACE) [4], the inhibition at 0.3 µM is < 30%, the inhibition at 1 µM is 50% and the inhibition at 3 µM was 102%.
On β-secretase (BACE) [1], `NC1=Nc2ccc(Oc3ccccc3)cc2CN1C(CNC(=O)C12CC3CC(CC(C3)C1)C2)C1CCCCC1` (stereo not shown) [Compound 312] showed an inhibition constant Ki of 0.039 µM. This compound came in with an IC50 against β-secretase (BACE) [2] of 0.039 µM. Further, at β-secretase (BACE) [3], the inhibition at 0.3 µM is 74%, the inhibition at 1 µM is 103% and the inhibition at 3 µM turned out to be 115%.
On β-secretase (BACE) [1], `CCCC(CNC(=O)C12CC3CC(CC(C3)C1)C2)N1Cc2cc(Oc3ccccc3)ccc2N=C1N` (stereo not shown) [Compound 602] registered a Ki of 0.056 µM. At β-secretase (BACE) [3], the inhibition at 0.3 µM was determined as 78%, the inhibition at 1 µM is 113% and the inhibition at 3 µM was 121%.
For the compound `CC(C)(C)OC(=O)NCC(C1CCCCC1)N1Cc2cc(Oc3ccccc3)ccc2N=C1N` (stereo not shown) [Compound 257], the affinity at β-secretase (BACE) [1] corresponds to a Ki of 0.056 µM. On β-secretase (BACE) [2], inhibition was half-maximal at 0.083 µM (IC50). Also, on β-secretase (BACE) [3], the inhibition at 0.3 µM was determined as 67% and the inhibition at 1 µM stood at 105%.
